From patent publication US10073082B2, “Proteasome inhibition assay and methods of use” (UNIVERSITY HEALTH NETWORK, priority 2013, dated 2018)

Legend:
[1] = system: monocytes of MM patients; test: LPS stimulation of monocytes in whole blood of Multiple Myeloma patients; format: cell-based, human; settings: 10 min LPS
Experimental: (§1) Whole blood samples from eight Multiple Myeloma (MM) patients were obtained. For three of the MM patients (MM003-MM005), whole blood samples were tested with or without LPS activation (10 min stimulation at 37° C.) and the samples were processed and analyzed for IκB degradation and signaling pathway activation as described in Example 1.
(§2) Blood samples from the 5 remaining MM patients samples were pretreated with Bortezomib or RP-171 (Carfilzomib, a covalent proteasome inhibitor) and then tested and analyzed with or without LPS activation (10 min LPS at 37 37° C.) for IκB degradation and signaling pathway activation as described in Example 1. […] All of the MM patients tested were receiving Bortezomib therapy.

[2] = system: peripheral blood lymphocytes; test: IκB degradation agonists in whole blood: IκB degradation and signaling pathway activation in lymphocytes; format: cell-based, human; settings: for Pathways Activated: Target Cell Population: Lymphocytes (subpopulation)
Experimental: (§3) Whole blood samples from normal human donors were collected. 100 μL aliquots of the whole blood were inserted into the bottom of 12×75 mm tubes. In order to reduce the potential for contamination of the sample with unfixed cells, blood was removed from the side of the tubes with a cotton swab. 1-2 μL of a proteasome effector was added to a first portion of the tubes and these tubes were incubated for 2 hours at 37° C. in a water bath. In this example, the proteasome effector was Bortezomib or MG-132, both proteasome inhibitors. Following pretreatment with the proteasome effector, 2 μL of […] stock solution (100 ng) of an IκB degradation agonist was added to the tubes and the tubes were incubated from 1 minute to 60 minutes at 37° C. in a water bath. In this example, the agonist was lipopolysaccharide (LPS). A second portion of the tubes were treated with the IκB degradation agonist and no proteasome effector. 2 μL of an IκB degradation agonist was added to these tubes and the tubes were incubated from 1 minute to 60 minutes as described above. For control tubes, 2 μL of phosphate buffered saline (PBS) was added to the tubes and the tubes were incubated as described above.
(§4) Following incubation, the cells were fixed and permeabilized with a PerFix-P® kit (Beckman Coulter, Inc., Brea. Calif.) according to the manufacturer's instructions. The fixed and permeabilized cells were then washed with 2 mL of Wash Buffer (PBS (w/o Ca++/Mg++) with 2% fetal bovine serum (FBS), sterile filtered (0.22 μm filter)) in the tubes and centrifuged at 500×g for 4 minutes. The cell pellet was resuspended in 2 mL of cold (4° C.) Wash Buffer, centrifuged at 500×g for 4 minutes, and the supernatant was aspirated.
(§5) Following the above wash steps, the fixed and permeabilized cells were resuspended in 100 μL of cold Wash Buffer comprising antibodies to specific intracellular antigens (e.g., signaling targets including P-ERK, P-Akt, P-p38, P-SAPK, P-S6, and antibodies to IκB). The antibodies were labeled with different fluorochromes (e.g. fluorophores) to facilitate their-individual measurement of the intracellular antigens. In order to target specific cell populations in the assay, antibodies capable of differentiating cell populations within the blood sample were also included in some of the tubes. For example, anti-CD14 antibodies were included to specifically label monocytes, anti-CD3 antibodies or anti-CD19 antibodies were included to specifically label T or B-cells respectively, and/or anti-CD38/CD138 antibodies were included to specifically label plasma cells. The cells were incubated with the antibodies for 30 minutes at room temperature and then the cells were washed in 2 mL of cold Wash Buffer and centrifuged as described above. The supernatant was aspirated and the cell pellet was resuspended in 350 μL of Resuspension Buffer (PerFix-P® kit) and analyzed on a flow cytometer (GALLIOS™) using a protocol with defined population gates and series of dual parameter histograms. A CD45-KO vs. SS dual parameter histogram was collected and a gate around the leukocyte population based on the CD45+ fluorescence and SS characteristics was drawn to exclude debris (CD45 negative events). A minimum of 2,500 CD14+ events were collected. A stop count region was set from the CD14-PC7 vs. SS histogram gated on monocytes. Dual parameter histograms gated on the appropriate populations were created to measure the populations of interest. The collected flow cytometric data was analyzed using KALUZA™ software.
(§6) Phosphorylation of signaling pathways activated by TNF-α, including ERK, Akt, and the ribosomal S6 protein, was monitored together with the degradation of IκB in peripheral blood WBCs. Whole blood samples were treated, activated, and processed as described in Example 1 and the degradation of IκB in peripheral blood cells was monitored by flow cytometry as described in Example 1. The IκB degradation agonist used in this example was TNF-α. […]

[3] = system: peripheral blood monocytes; test: IκB degradation agonists in whole blood: IκB degradation and signaling pathway activation in monocytes; format: cell-based, human; settings: for Pathways Activated: Target Cell Population: Monocytes
Experimental: as §3, §4, §5, §6

[4] = system: granulocytes; test: IκB degradation agonists in whole blood: IκB degradation and signaling pathway activation in granulocytes; format: cell-based, human
Experimental: as §3, §4
(§7) Following the above wash steps, the fixed and permeabilized cells were resuspended in 100 μL of cold Wash Buffer comprising antibodies to specific intracellular antigens (e.g., signaling targets including P-ERK, P-Akt, P-p38, P-SAPK, P-S6, and antibodies to IκB). The antibodies were labeled with different fluorochromes (e.g. fluorophores) to facilitate their-individual measurement of the intracellular antigens. […] The supernatant was aspirated and the cell pellet was resuspended in 350 μL of Resuspension Buffer (PerFix-P® kit) and analyzed on a flow cytometer (GALLIOS™) using a protocol with defined population gates and series of dual parameter histograms. A CD45-KO vs. SS dual parameter histogram was collected and a gate around the leukocyte population based on the CD45+ fluorescence and SS characteristics was drawn to exclude debris (CD45 negative events). […] The collected flow cytometric data was analyzed using KALUZA™ software.

[5] = system: P-ERK in peripheral blood monocytes; test: TNFα induced ERK activation in monocytes from pretreated whole blood; format: cell-based, human; settings: TNFα activated monocytes, whole blood pretreated with inhibitor
Experimental: (§8) Whole blood samples from normal human donors were collected. 100 μL aliquots of the whole blood were inserted into the bottom of 12×75 mm tubes. In order to reduce the potential for contamination of the sample with unfixed cells, blood was removed from the side of the tubes with a cotton swab. 1-2 μL of a proteasome effector was added to a first portion of the tubes and these tubes were incubated for 2 hours at 37° C. in a water bath. In this example, the proteasome effector was Bortezomib or MG-132, both proteasome inhibitors. […]
as §7, with “IκB).” for “IκB). The antibodies were labeled with different fluorochromes (e.g. fluorophores) to facilitate their-individual measurement of the intracellular antigens.”, “software. […]” for “software.”

[6] = system: IκB in peripheral blood monocytes; test: TNFα induced degradation of IκB in monocytes from pretreated whole blood; format: cell-based, human; settings: TNFα activated monocytes, whole blood pretreated with inhibitor
Experimental: as §8
as §7, with “IκB).” for “IκB). The antibodies were labeled with different fluorochromes (e.g. fluorophores) to facilitate their-individual measurement of the intracellular antigens.”, “software. […]” for “software.”

[7] = system: IκB in peripheral blood lymphocytes; test: Flow cytometry assay, whole blood pretreated with effector: LPS induced degradation of IκB in lymphocytes; format: cell-based, human; settings: whole blood pretreated with inhibitor, then LPS
Experimental: (§9) The assay generally comprises treating whole blood with an IκB degradation agonist and/or proteasome effector, fixing the blood cells, permeabilizing the fixed bloods cells, treating the fixed and permeabilized cells with an alcohol treatment to unmask intracellular phosphor-epitopes, and then staining the treated cells with antibodies for flow cytometry analysis.
(§10) Whole blood samples from normal human donors were collected. 100 μL aliquots of the whole blood were inserted into the bottom of 12×75 mm tubes. In order to reduce the potential for contamination of the sample with unfixed cells, blood was removed from the side of the tubes with a cotton swab. […]
(§11) Following the above wash steps, the fixed and permeabilized cells were resuspended in 100 μL of cold Wash Buffer comprising antibodies to specific intracellular antigens (e.g., signaling targets including P-ERK, P-Akt, P-p38, P-SAPK, P-S6, and antibodies to IκB). […] The supernatant was aspirated and the cell pellet was resuspended in 350 μL of Resuspension Buffer (PerFix-P® kit) and analyzed on a flow cytometer (GALLIOS™) using a protocol with defined population gates and series of dual parameter histograms. A CD45-KO vs. SS dual parameter histogram was collected and a gate around the leukocyte population based on the CD45+ fluorescence and SS characteristics was drawn to exclude debris (CD45 negative events). […]

[8] = system: proteasome activity (IκB degradation, ERK activation) in monocytes; test: Proteasome inhibition in blood monocytes of Multiple Myeloma patients receiving Bortezomib therapy (LPS stimulation ex vivo); design: species or system human
Experimental: as §1, §2

[9] = system: IκB in granulocytes; test: Flow cytometry assay, whole blood pretreated with effector: IκB levels in granulocytes after LPS; format: cell-based, human; settings: whole blood pretreated with inhibitor, then LPS; 60 minutes time period
Experimental: as §9, §10, §11

[10] = system: IκB in peripheral blood monocytes; test: Flow cytometry assay, whole blood pretreated with effector: LPS induced degradation of IκB in monocytes; format: cell-based, human; settings: monocytes, whole blood pretreated with inhibitor 2 hours at 37° C., then LPS; within 10 minutes
Experimental: as §3, with “2 μL of an IκB degradation agonist was added to these tubes and the tubes were incubated from 1 minute to 60 minutes as described above. For control tubes, 2 μL of phosphate buffered saline (PBS) was added to the tubes and the tubes were incubated as described above.” left out
Following the above wash steps, the fixed and permeabilized cells were resuspended in 100 μL of cold Wash Buffer comprising antibodies to specific intracellular antigens (e.g., signaling targets including P-ERK, P-Akt, P-p38, P-SAPK, P-S6, and antibodies to IκB). […] The supernatant was aspirated and the cell pellet was resuspended in 350 μL of Resuspension Buffer (PerFix-P® kit) and analyzed on a flow cytometer (GALLIOS™) using a protocol with defined population gates and series of dual parameter histograms. A CD45-KO vs. SS dual parameter histogram was collected and a gate around the leukocyte population based on the CD45+ fluorescence and SS characteristics was drawn to exclude debris (CD45 negative events). […] The collected flow cytometric data was analyzed using KALUZA™ software.
Phosphorylation of signaling pathways activated by LPS, including ERK, Akt (activated by PI3 Kinase), and the ribosomal S6 protein (a marker of protein synthesis) were also monitored together with the degradation of IκB. […] The degradation of IκB in cells pretreated with MG-132 or GDC-0941 was monitored by flow cytometry as described in Example 1. […]

[11] = three MM patients (MM003-MM005), 10 min LPS at 37° C.

lipopolysaccharide [LPS]
loss of IκB ([1]; six MM samples): 60-70% | percent decrease of IκB MFI ([1]; two MM samples): 48% | Pathways Activated ([2]; pathway: ERK MAP kinase (Tpl-2)): ERK MAP kinase (Tpl-2) | Pathways Activated ([2]; pathway: IκB > NFκB): IκB > NFκB | Pathways Activated ([2]; pathway: PI3 kinase > Akt): PI3 kinase > Akt | degradation of IκB in lymphocytes at 10 min ([2]; agonist alone, 10 min): no significant degradation | Pathways Activated ([3]; pathway: IκB > NFκB): IκB > NFκB | Pathways Activated ([3]; pathway: P-p 38 MAP kinase): P-p 38 MAP kinase | Pathways Activated ([3]; pathway: PI3 kinase > Akt): PI3 kinase > Akt | Pathways Activated ([3]; pathway: SAP/JNK MAP kinase): SAP/JNK MAP kinase | Pathways Activated ([3]; pathway: Tpl-2 > ERK/MAP kinase): Tpl-2 > ERK/MAP kinase | loss in measured IκB ([3]; agonist alone, normal donors, monocytes, within 10 minutes of treatment): 60-70% | Pathways Activated ([4]; Target Cell Population: Granulocytes): P-p38 MAP kinase | degradation of IκB in granulocytes ([4]; agonist alone): No significant degradation

CC(C)C[C@H](NC(=O)[C@H](Cc1ccccc1)NC(=O)c1cnccn1)B(O)O [Bortezomib]
activation of ERK [5]: completely inhibited | degradation of IκB [6]: completely inhibited | LPS induced degradation of IκB in lymphocytes [7]: inhibition of LPS induced degradation of IκB | proteasome inhibition ([8]; all MM patients tested, blood draw a week after the treatment): no proteasome inhibition was detected | inhibition of ERK activation following LPS stimulation [8, 11]: no inhibition | inhibition of IκB degradation following LPS stimulation [8, 11]: no inhibition | degradation of IκB in granulocytes [9]: No significant degradation | loss in measured IκB [10]: ~10%
